A value given as a limit tells only on which side of the number the result lay.

The target of one test is T1, cloned human M2 receptor (Homo sapiens, UniProt P08172).
T1 construct: purchased Perkin-Elmer RBHM2M; host or cells: CHO cell membranes
T1 sequence (P08172 1-466): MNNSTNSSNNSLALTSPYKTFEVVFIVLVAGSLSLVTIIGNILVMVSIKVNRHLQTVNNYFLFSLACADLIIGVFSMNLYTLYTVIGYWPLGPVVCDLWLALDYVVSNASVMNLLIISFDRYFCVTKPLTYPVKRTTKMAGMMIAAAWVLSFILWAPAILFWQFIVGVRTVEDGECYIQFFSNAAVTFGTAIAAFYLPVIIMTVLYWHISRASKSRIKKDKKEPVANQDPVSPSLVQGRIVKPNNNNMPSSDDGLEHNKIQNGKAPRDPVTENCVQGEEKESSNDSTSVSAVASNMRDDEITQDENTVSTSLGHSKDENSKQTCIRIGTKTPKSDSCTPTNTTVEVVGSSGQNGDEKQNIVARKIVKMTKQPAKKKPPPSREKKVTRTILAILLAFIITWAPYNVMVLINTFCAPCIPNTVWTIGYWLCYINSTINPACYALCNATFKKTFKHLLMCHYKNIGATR
The experiment in a line: hM2 receptor GTPγS binding. Type of test: biochemical. Conditions: CHO membranes expressing hM2, [35S]GTPγS binding. The protocol:
Membranes produced from Chinese hamster ovary cells (CHO) expressing the cloned human M2 receptor (human Muscarinic receptor subtype 2, gene bank access NM_000739), are obtained from Perkin-Elmer (RBHM2M). The membranes are thawed at 37° C., passed 3 times through a 23-gauge blunt-end needle, diluted in the GTPγS binding buffer (50 mM Hepes, 20 mM NaOH, 100 mM NaCl, 1 mM EDTA, 5 mM MgCl2, pH 7.4, 100 μM DTT). The EC50, IC50 and Emax of the compounds of the invention are evaluated from 10-point dose-response curves (three fold concentration range) done in 60 μl in 384-well non-specific binding surface plate (Corning). Ten microliters from the dose-response curves plate (5× concentration) are transferred to another 384 well plate containing 25 μl of the following: 5 μg of hM2 membranes, 500 μg of Flashblue beads (Perkin-Elmer) and GDP 25 μM. An additional 15 μl containing 3.3× (60,000 dpm) of GTPγ^35S (0.4 nM final) are added to the wells resulting in a total well volume of 50 μl. Basal and maximal stimulated [^35S]GTPγS binding are determined in absence and presence of 30 μM final of acetylcholine agonist. The membranes/beads mix are pre-incubated for 15 minutes at room temperature with 25 μM GDP prior to distribution in plates (12.5 μM final). The reversal of acetylcholine-induced stimulation (2 μM final) of [^35S]GTPγS binding is used to assay the antagonist properties (IC50) of the compounds. The plates are incubated for 60 minutes at room temperature then centrifuged at 400 rpm for 5 minutes. The radioactivity (cpm) is counted in a Trilux (Perkin-Elmer).
(§1) Values of EC50, IC50 and Emax are obtained using sigmoidal fits of a non-linear curve-fitting program (XLfit version 4.2.2 Excel add-in version 4.2.2 build 18 math 1Q version 2.1.2 build 18) of percent stimulated [^35S]GTPγS binding vs. log(molar ligand). All pEC50 and pIC50 values are reported as arithmetic means±standard error of mean of ‘n’ independent experiments.
In general terms: GTPγS is a poorly hydrolysed GTP analogue; its binding reports G protein activation.

For a further test, the target named is T2, cloned human M4 receptor (Homo sapiens, UniProt P08173).
T2 construct: purchased Perkin-Elmer RBHM4M; host or cells: CHO cell membranes
T2 sequence (P08173 1-479): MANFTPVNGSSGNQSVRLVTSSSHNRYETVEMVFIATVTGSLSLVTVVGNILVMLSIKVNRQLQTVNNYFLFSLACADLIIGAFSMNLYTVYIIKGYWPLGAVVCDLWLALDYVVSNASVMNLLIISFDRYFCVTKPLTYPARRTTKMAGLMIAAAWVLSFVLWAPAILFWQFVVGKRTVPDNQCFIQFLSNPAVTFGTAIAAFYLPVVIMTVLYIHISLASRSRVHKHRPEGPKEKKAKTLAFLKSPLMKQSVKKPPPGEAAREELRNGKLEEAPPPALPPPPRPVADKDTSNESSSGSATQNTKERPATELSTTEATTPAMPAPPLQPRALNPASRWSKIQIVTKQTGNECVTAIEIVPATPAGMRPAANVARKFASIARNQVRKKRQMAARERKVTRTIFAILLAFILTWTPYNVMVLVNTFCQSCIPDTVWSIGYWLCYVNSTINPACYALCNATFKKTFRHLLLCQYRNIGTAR
In words: hM4 receptor GTPγS binding. Type of test: biochemical. The note with it: CHO membranes expressing hM4, [35S]GTPγS binding. The protocol:
Membranes produced from Chinese hamster ovary cells (CHO) expressing the cloned human M4 receptor (human Muscarinic receptor subtype 4, gene bank access NM_000741), are obtained from Perkin-Elmer (RBHM4M). The membranes are thawed at 37° C., passed 3 times through a 23-gauge blunt-end needle, diluted in the GTPγS binding buffer (50 mM Hepes, 20 mM NaOH, 100 mM NaCl, 1 mM EDTA, 5 mM MgCl2, pH 7.4, 100 μM DTT). The EC50, IC50 and Emax of the compounds of the invention are evaluated from 10-point dose-response curves (three fold concentration range) done in 60 μl in 384-well non-specific binding surface plate (Corning). Ten microliters from the dose-response curves plate (5× concentration) are transferred to another 384 well plate containing 25 μl of the following: 10 μg of hM4 membranes, 500 μg of Flashblue beads (Perkin-Elmer) and GDP 40 μM. An additional 15 μl containing 3.3× (60,000 dpm) of GTPγ^35S (0.4 nM final) are added to the wells resulting in a total well volume of 50 μl. Basal and maximal stimulated [^35S]GTPγS binding are determined in absence and presence of 30 μM final of acetylcholine agonist. The membranes/beads mix are pre-incubated for 15 minutes at room temperature with 40 μM GDP prior to distribution in plates (20 μM final). The reversal of acetylcholine-induced stimulation (10 μM final) of [^35S]GTPγS binding is used to assay the antagonist properties (IC50) of the compounds. The plates are incubated for 60 minutes at room temperature then centrifuged at 400 rpm for 5 minutes. The radioactivity (cpm) is counted in a Trilux (Perkin-Elmer).
as §1

Consider `CC(C)OC(=O)N1CCC(C)(N2CCC(N3C(=O)C[C@H]4CCCC[C@@H]43)CC2)CC1` [Example 14, Propan-2-yl 4-[4-[(3aR,7aS)-2-oxo-3a,4,5,6,7,7a-hexahydro-3H-indol-1-yl]-1-piperidyl]-4-methyl-piperidine-1-carboxylate], for which the EC50 on cloned human M2 receptor and at cloned human M4 receptor was over 30 µM each time.

As for `CC1(N2CCC(N3C(=O)N[C@H]4CCCC[C@@H]43)CC2)CCN(C(=O)OCCF)C1` (mixture of isomers) [Example 08, 2-fluoroethyl 3-[4-[(3aS,7aS)-2-oxo-3a,4,5,6,7,7a-hexahydro-3H-benzoimidazol-1-yl]-1-piperidyl]-3-methyl-pyrrolidine-1-carboxylate], the EC50 (as a rule, the concentration giving half of the maximal effect) was over 15 µM on cloned human M2 receptor and over 30 µM at cloned human M4 receptor.

Take `C#CCOC(=O)N1CCC(C)(N2CCC(N3C(=O)N[C@H]4CCCC[C@@H]43)CC2)C1` (mixture of isomers) [Example 09, Prop-2-ynyl 3-[4-[(3aS,7aS)-2-oxo-3a,4,5,6,7,7a-hexahydro-3H-benzoimidazol-1-yl]-1-piperidyl]-3-methyl-pyrrolidine-1-carboxylate]: the results for the EC50 on cloned human M2 receptor and on cloned human M4 receptor were over 1 µM and over 13 µM, respectively.

Regarding `CCOC(=O)N1CCC(C)(N2CCC(N3C(=O)N[C@@H]4CCCC[C@@H]43)CC2)CC1` (relative stereo) [Example 12, Ethyl 4-[4-[(cis)-2-oxo-3a,4,5,6,7,7a-hexahydro-3H-benzoimidazol-1-yl]-1-piperidyl]-4-methyl-piperidine-1-carboxylate], the values for the EC50 on cloned human M2 receptor and at cloned human M4 receptor were 0.13 µM and over 4 µM, respectively.

With `CC(C)OC(=O)N1CCC(C)(N2CCC(N3C(=O)N[C@@H]4CCCC[C@H]43)CC2)CC1` [Example 05, Propan-2-yl 4-[4-[(3aR,7aR)-2-oxo-3a,4,5,6,7,7a-hexahydro-3H-benzoimidazol-1-yl]-1-piperidyl]-4-methyl-piperidine-1-carboxylate], the EC50 at cloned human M2 receptor is over 14 µM; at cloned human M4 receptor, over 30 µM.

For `COC(=O)N1CCC(C)(N2CCC(N3C(=O)N[C@H]4CCCC[C@@H]43)CC2)C1` (mixture of isomers) [Example 10, Methyl 3-[4-[(3aS,7aS)-2-oxo-3a,4,5,6,7,7a-hexahydro-3H-benzoimidazol-1-yl]-1-piperidyl]-3-methyl-pyrrolidine-1-carboxylate], the EC50 is over 4 µM on cloned human M2 receptor and over 30 µM on cloned human M4 receptor.

`C#CCOC(=O)N1CCC(C)(N2CCC(N3C(=O)N[C@H]4CCCC[C@@H]43)CC2)CC1` [Example 17, prop-2-ynyl 4-[4-[(3aS,7aS)-2-oxo-3a,4,5,6,7,7a-hexahydro-3H-benzimidazol-1-yl]-1-piperidyl]-4-methyl-piperidine-1-carboxylate]: the results for the EC50 at cloned human M2 receptor and at cloned human M4 receptor were 0.048 µM and over 30 µM, respectively.

Regarding `CC1(N2CCC(N3C(=O)C[C@H]4CCCC[C@@H]43)CC2)CCN(C(=O)C2CC2)CC1` [Example 15, (3aR,7aS)-1-[1-[1-(cyclopropanecarbonyl)-4-methyl-4-piperidyl]-4-piperidyl]-3a,4,5,6,7,7a-hexahydro-3H-indol-2-one], the EC50 at cloned human M2 receptor was over 15 µM; at cloned human M4 receptor, over 30 µM.

Consider `CC#CCOC(=O)N1CCC(C)(N2CCC(N3C(=O)N[C@H]4CCCC[C@@H]43)CC2)CC1` [Example 16, But-2-ynyl 4-[4-[(3aS,7aS)-2-oxo-3a,4,5,6,7,7a-hexahydro-3H-benzimidazol-1-yl]-1-piperidyl]-4-methyl-piperidine-1-carboxylate], for which the EC50 is 0.121 µM on cloned human M2 receptor and over 90 µM on cloned human M4 receptor.

For the compound `CCOC(=O)N1CCC(C)(N2CCC(N3C(=O)N[C@H]4CCCC[C@@H]43)CC2)C1` (single isomer, unassigned) [Example 22], the EC50 on cloned human M2 receptor was 1.17 µM; on cloned human M4 receptor, 3.47 µM.

As to `CCOC(=O)N1CCC(C)(N2CCC(N3C(=O)N[C@H]4CCCC[C@@H]43)CC2)C1` (single isomer, unassigned) [Example 21], the EC50 at cloned human M2 receptor was 4.87 µM; on cloned human M4 receptor, over 90 µM.

On to `CCOC(=O)N1CCC(C)(N2CCC(N3C(=O)C[C@@H]4CCCC[C@H]43)CC2)C1` (stereo in doubt) [Example 23, Ethyl 3-[4-[(3aS,7aR)-2-oxo-3a,4,5,6,7,7a-hexahydro-3H-indol-1-yl]-1-piperidyl]-3-methyl-pyrrolidine-1-carboxylate], for which the figures for the EC50 at cloned human M2 receptor and on cloned human M4 receptor were 2.68 µM and 17 µM, respectively.

Turning to `CC1(N2CCC(N3C(=O)N[C@@H]4CCCC[C@H]43)CC2)CCN(C(=O)C2CC2)CC1` [Example 06, (3aR,7aR)-1-[1-[1-(cyclopropanecarbonyl)-4-methyl-4-piperidyl]-4-piperidyl]-3a,4,5,6,7,7a-hexahydro-3H-benzoimidazol-2-one], the EC50 at cloned human M2 receptor and on cloned human M4 receptor was over 30 µM in each case.

As to `CCC(=O)N1CCC(C)(N2CCC(N3C(=O)N[C@H]4CCCC[C@@H]43)CC2)CC1` [Example 18, (3aS,7aS)-3-[1-(4-methyl-1-propanoyl-4-piperidyl)-4-piperidyl]-3a,4,5,6,7,7a-hexahydro-1H-benzimidazol-2-one], the EC50 at cloned human M2 receptor is 2.34 µM; at cloned human M4 receptor, over 30 µM.

Take `CC#CCOC(=O)N1CCC(C)(N2CCC(N3C(=O)N[C@H]4CCCC[C@@H]43)CC2)C1` (single isomer, unassigned) [Example 19]: the EC50 was 0.204 µM on cloned human M2 receptor and 0.919 µM on cloned human M4 receptor.

In the case of `CC(C)OC(=O)N1CCC(C)(N2CCC(N3C(=O)N[C@@H]4CCCC[C@@H]43)CC2)CC1` (relative stereo) [Example 13, Propan-2-yl 4-[4-[(cis)-2-oxo-3a,4,5,6,7,7a-hexahydro-3H-benzoimidazol-1-yl]-1-piperidyl]-4-methyl-piperidine-1-carboxylate], the EC50 at cloned human M2 receptor and at cloned human M4 receptor was over 30 µM throughout.

For the compound `CCOC(=O)N1CCC(C)(N2CCC(N3C(=O)N[C@@H]4CCCC[C@H]43)CC2)CC1` [Example 04, Ethyl 4-[4-[(3aR,7aR)-2-oxo-3a,4,5,6,7,7a-hexahydro-3H-benzoimidazol-1-yl]-1-piperidyl]-4-methyl-piperidine-1-carboxylate], the figures for the EC50 on cloned human M2 receptor and at cloned human M4 receptor were 0.48 µM and over 6.1 µM, respectively.
